Values after ≈ are worked out from the molar mass of the structure shown. Like-named read-outs stand apart in the source and are kept apart here.
Columns and labels:
HRV10 (204-CV14) = test: Anti-rhinovirus spectrum (MTT), HRV10; format: cell-based, human rhinovirus; details: Enterovirus; Table VII, rhinovirus serotype HRV10
HRV61 (6669-CV39) = test: Anti-rhinovirus spectrum (MTT), HRV61; format: cell-based, human rhinovirus; details: Enterovirus; Table VII, rhinovirus serotype HRV61
[1] = system: human rhinovirus type 1B (HRV 1B, B632); test: Anti-rhinovirus activity (MTT), HRV1B; format: cell-based
HRV21 (47) = test: Anti-rhinovirus spectrum (MTT), HRV21; format: cell-based, human rhinovirus; details: Enterovirus; Table VII, rhinovirus serotype HRV21
HRV13 (353) = test: Anti-rhinovirus spectrum (MTT), HRV13; format: cell-based, human rhinovirus; details: Enterovirus; Table VII, rhinovirus serotype HRV13
HRV31 (41F) = test: Anti-rhinovirus spectrum (MTT), HRV31; format: cell-based, human rhinovirus; details: Enterovirus; Table VII, rhinovirus serotype HRV31
[2] = Cytotoxicity (MTT, without virus), HeLa-S3; details: human, HeLa-S3 cells (uninfected)
[3] = system: clinical isolate (89229T); test: microbe, parasite or virus in culture; format: cell-based, human rhinovirus; details: Human rhinovirus sp.; Table VII, clinical isolate (89229T); read-out: Anti-rhinovirus activity Clinically isolated strain
HRV33 (1200) = test: Anti-rhinovirus spectrum (MTT), HRV33; format: cell-based, human rhinovirus; details: Enterovirus; Table VII, rhinovirus serotype HRV33
[4] = system: echovirus type 11 (Echo 11, Gregory); test: In vitro anti-picornavirus activity (MTT), Echo 11; format: cell-based; details: Enterovirus B; HeLa-S3 cells, MTT method, 37° C.
[5] = Cytotoxicity (MTT, without virus), HeLa(Ohio); details: human, HeLa (Ohio strain) cells (uninfected)
HRV50(A2#58) = test: Anti-rhinovirus spectrum (MTT), HRV50; format: cell-based, human rhinovirus; details: Enterovirus, HRV50, read-out: Anti-rhinovirus activity HRV50
HRV 89 (41617-Gallo) = test: Anti-rhinovirus activity (MTT), HRV89; format: cell-based, human rhinovirus
HRV39 (209) = test: Anti-rhinovirus spectrum (MTT), HRV39; format: cell-based, human rhinovirus; details: Enterovirus; Table VII, rhinovirus serotype HRV39
HRV3(FEB) = test: Anti-rhinovirus spectrum (MTT), HRV3; format: cell-based, human rhinovirus; details: Enterovirus; Table VII, rhinovirus serotype HRV3
HRV 2 (HGP) = test: Anti-rhinovirus activity (MTT), HRV2; format: cell-based, human rhinovirus
[6] = system: Poliovirus type 1 (Polio 1, Sabin); test: microbe, parasite or virus in culture; format: cell-based; details: Enterovirus C, HeLa S3, read-out: IC50 Polio 1
HRV5 = test: Anti-rhinovirus spectrum (MTT), HRV5; format: cell-based, human rhinovirus; details: Enterovirus; Table VII, rhinovirus serotype HRV5
HRV29 (5582) = test: Anti-rhinovirus spectrum (MTT), HRV29; format: cell-based, human rhinovirus; details: Enterovirus; Table VII, rhinovirus serotype HRV29
HRV14 (1059) = test: Anti-rhinovirus activity (MTT), HRV14; format: cell-based, human rhinovirus
HRV1A (E28) = test: Anti-rhinovirus activity (MTT), HRV1A; format: cell-based, human rhinovirus; details: HRV1A
HRV8(MRH) = test: Anti-rhinovirus spectrum (MTT), HRV8; format: cell-based, human rhinovirus; details: Enterovirus; Table VII, rhinovirus serotype HRV8
HRV36 (342H) = test: Anti-rhinovirus spectrum (MTT), HRV36; format: cell-based, human rhinovirus; details: Enterovirus; Table VII, rhinovirus serotype HRV36
[7] = system: coxsackievirus type A7 (CA7); test: In vitro anti-picornavirus activity (MTT), CA7; format: cell-based; details: Coxsackievirus; HeLa-S3 cells, MTT method, 37° C.
[8] = system: coxsackievirus type B4 (CB4,JVB); test: In vitro anti-picornavirus activity (MTT), CB4; format: cell-based; details: Coxsackievirus; HeLa cells, MTT method, 37° C.
HRV41 (56110) = test: Anti-rhinovirus spectrum (MTT), HRV41; format: cell-based, human rhinovirus; details: Enterovirus; Table VII, rhinovirus serotype HRV41
HRV16 (11757) = test: Anti-rhinovirus spectrum (MTT), HRV16; format: cell-based, human rhinovirus; details: Enterovirus; Table VII, rhinovirus serotype HRV16
[9] = Cytotoxicity (MTT, without virus), HeLa; details: human, HeLa cells (uninfected)
HRV32 (363) = test: Anti-rhinovirus spectrum (MTT), HRV32; format: cell-based, human rhinovirus; details: Enterovirus; Table VII, rhinovirus serotype HRV32
[10] = Human rhinovirus sp., HRV1B, HeLa (Ohio strain) cells, MTT method, 33° C., read-out: IC50 HRV1B
[11] = Human rhinovirus sp., HRV89, HeLa (Ohio strain) cells, MTT method, 33° C., read-out: IC50 HRV89
[12] = Human rhinovirus sp., HRV2, HeLa (Ohio strain) cells, MTT method, 33° C., read-out: IC50 HRV2
[13] = Human rhinovirus sp., HRV14, HeLa (Ohio strain) cells, MTT method, 33° C., read-out: IC50 HRV 14
[14] = Human rhinovirus sp., HeLa, read-out: IC50 HRV 1A

Cc1c(-c2ccccc2)n(-c2ccccc2)c2ccc(C(C)C)cc2c1=O [Compound A320, 1,2-Diphenyl-3-methyl-6-isopropyl-1,4-dihydro-4-oxoquinoline]
IC50 (HRV10 (204-CV14)): 0.021 µg/mL (≈ 0.0594 µM)
IC50 (HRV61 (6669-CV39)): 0.21 µg/mL (≈ 0.594 µM)
IC50 [1, 10]: 0.12 µg/mL (≈ 0.339 µM)
IC50 ([1]; Table VII, rhinovirus serotype HRV1B, read-out: Anti-rhinovirus activity HRV1B): 0.12 µg/mL (≈ 0.339 µM)
IC50 (HRV21 (47)): 0.024 µg/mL (≈ 0.0679 µM)
IC50 (HRV13 (353)): 0.23 µg/mL (≈ 0.651 µM)
IC50 (HRV31 (41F)): 0.046 µg/mL (≈ 0.13 µM)
CC50 at 4 days [2]: > 5 µg/mL
IC50 [3]: 0.017 µg/mL (≈ 0.0481 µM)
IC50 (HRV33 (1200)): 0.23 µg/mL (≈ 0.651 µM)
IC50 [4]: 0.15 µg/mL (≈ 0.424 µM)
CC50 at 4 days [5]: > 5 µg/mL
IC50 (HRV50(A2#58)): 0.02 µg/mL (≈ 0.0566 µM)
IC50 (HRV 89 (41617-Gallo); Enterovirus, Table VII, rhinovirus serotype HRV89, read-out: Anti-rhinovirus activity HRV89): 0.051 µg/mL (≈ 0.144 µM)
IC50 (HRV 89 (41617-Gallo); [11]): 0.051 µg/mL (≈ 0.144 µM)
IC50 (HRV39 (209)): < 0.017 µg/mL
IC50 (HRV3(FEB)): > 5 µg/mL
IC50 (HRV 2 (HGP); Enterovirus, Table VII, rhinovirus serotype HRV2, read-out: Anti-rhinovirus activity HRV2): 0.051 µg/mL (≈ 0.144 µM)
IC50 (HRV 2 (HGP); [12]): 0.051 µg/mL (≈ 0.144 µM)
IC50 [6]: > 5 µg/mL
IC50 (HRV5): > 5 µg/mL
IC50 (HRV29 (5582)): 0.079 µg/mL (≈ 0.224 µM)
melting point: 225 °C
IC50 (HRV14 (1059); Enterovirus, Table VII, rhinovirus serotype HRV14, read-out: Anti-rhinovirus activity HRV14): > 5 µg/mL
IC50 (HRV1A (E28); Enterovirus, read-out: Anti-rhinovirus activity HRV1A): > 5 µg/mL
IC50 (HRV8(MRH)): > 5 µg/mL
IC50 (HRV36 (342H)): 0.082 µg/mL (≈ 0.232 µM)
IC50 [7]: > 5 µg/mL
IC50 [8]: > 5 µg/mL
IC50 (HRV41 (56110)): 0.066 µg/mL (≈ 0.187 µM)
IC50 (HRV16 (11757)): 0.023 µg/mL (≈ 0.0651 µM)
CC50 at 4 days [9]: > 5 µg/mL
IC50 (HRV32 (363)): 0.051 µg/mL (≈ 0.144 µM)

CCn1c(-c2ccco2)cc(=O)c2cc(C(C)C)ccc21 [Compound A304, 1-Ethyl-2-(2-furyl)-6-isopropyl-1,4-dihydro-4-oxoquinoline]
IC50 [1, 10]: 0.76 µg/mL (≈ 2.7 µM)
CC50 at 4 days [2]: > 20 µg/mL
IC50 [4]: 0.35 µg/mL (≈ 1.24 µM)
CC50 at 4 days [5]: 19 µg/mL (≈ 67.5 µM)
IC50 (HRV 89 (41617-Gallo); [11]): 0.9 µg/mL (≈ 3.2 µM)
IC50 (HRV 2 (HGP); [12]): 0.34 µg/mL (≈ 1.21 µM)
IC50 [6]: 0.8 µg/mL (≈ 2.84 µM)
melting point: 70 to 73 °C
IC50 [7]: 3.6 µg/mL (≈ 12.8 µM)
IC50 [8]: 1.9 µg/mL (≈ 6.75 µM)
CC50 at 4 days [9]: 18 µg/mL (≈ 64 µM)

CCn1c2c(c(=O)c3cc(C(C)C)ccc31)Cc1c(C)csc1-2 [Compound D52, 10-Ethyl-7-isopropyl-3-methyl-5,10-dihydro-4H-thieno[3′,2′:4,5]cyclopenta[1,2-b]quinolin-5-one]
IC50 [1, 10]: 0.89 µg/mL (≈ 2.75 µM)
CC50 at 4 days [2]: > 5 µg/mL
IC50 [4]: 0.55 µg/mL (≈ 1.7 µM)
CC50 at 4 days [5]: > 5 µg/mL
IC50 (HRV 89 (41617-Gallo); [11]): 0.85 µg/mL (≈ 2.63 µM)
IC50 (HRV 2 (HGP); [12]): 0.86 µg/mL (≈ 2.66 µM)
IC50 [6]: 1 µg/mL (≈ 3.09 µM)
melting point: 195 °C (dec.)
IC50 (HRV14 (1059); [13]): 1.1 µg/mL (≈ 3.4 µM)
IC50 (HRV1A (E28); [14]): 3.1 µg/mL (≈ 9.58 µM)
IC50 [7]: > 5 µg/mL
IC50 [8]: 3 µg/mL (≈ 9.27 µM)
CC50 at 4 days [9]: > 5 µg/mL

CCn1c2c(c(=O)c3cc(C(C)C)ccc31)Cc1c-2ccn1C [Compound D53, 4-Ethyl-7-isopropyl-1-methyl-4,9-dihydro-10H-pyrrolo[2′,3′:4,5]cyclopenta[1,2-b]quinolin-9-one]
IC50 [1, 10]: 1.6 µg/mL (≈ 5.22 µM)
CC50 at 4 days [2]: > 10 µg/mL
IC50 [4]: 0.68 µg/mL (≈ 2.22 µM)
CC50 at 4 days [5]: > 10 µg/mL
IC50 (HRV 89 (41617-Gallo); [11]): 1.4 µg/mL (≈ 4.57 µM)
IC50 (HRV 2 (HGP); [12]): 0.91 µg/mL (≈ 2.97 µM)
IC50 [6]: 1.8 µg/mL (≈ 5.87 µM)
melting point: 91 to 93 °C
IC50 (HRV14 (1059); [13]): 2.3 µg/mL (≈ 7.51 µM)
IC50 (HRV1A (E28); [14]): > 10 µg/mL
IC50 [7]: > 10 µg/mL
IC50 [8]: > 3.3 µg/mL
CC50 at 4 days [9]: > 10 µg/mL

CCn1c(-c2ccc(OC)c(C)c2)c(C)c(=O)c2c(C)c(OCC(C)C)ccc21 [Compound A191, 1-Ethyl-2-(3-methyl-4-methoxyphenyl)-3,5-dimethyl-6-isobutoxy-1,4-dihydro-4-oxoquinoline]
IC50 [1, 10]: 1.3 µg/mL (≈ 3.3 µM)
CC50 at 4 days [2]: > 4 µg/mL
IC50 [4]: 0.19 µg/mL (≈ 0.483 µM)
CC50 at 4 days [5]: > 4 µg/mL
IC50 (HRV 89 (41617-Gallo); [11]): 0.2 µg/mL (≈ 0.508 µM)
IC50 (HRV 2 (HGP); [12]): 0.15 µg/mL (≈ 0.381 µM)
IC50 [6]: 0.4 µg/mL (≈ 1.02 µM)
melting point: 149 °C
IC50 [7]: 2.5 µg/mL (≈ 6.35 µM)
IC50 [8]: 1.6 µg/mL (≈ 4.07 µM)
CC50 at 4 days [9]: > 4 µg/mL

Reference: US7109338B2, “1,2-disubstituted 1,4-dihydro-4-oxoquinoline compounds” (priority 1999, dated 2006)
